Source: patent US20230278972A1, “SUBSTITUTED HALOALKYL SULFONANILIDE HERBICIDES” (FMC Corporation, priority 2020, published 2023)

Tests used:
Assay type in all cases: in vivo
[1] = tested on: Foxtail, Giant (giant foxtail, Setaria faberi); assay: Test A1 preemergence, Foxtail, Giant
Procedure, shortened: (§1)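 Both timings started from seed in a loam-sand blend. Preemergence pots got a directed soil application immediately; postemergence pots were sprayed when seedlings had one or two leaves and stood 2–10 cm. Each compound was prepared in a non-phytotoxic solvent plus surfactant.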

[2] = tested on: goosegrass (Eleusine indica); assay: Test A1 preemergence, goosegrass
Procedure, shortened: as §1

[3] = tested on: Oat, Wild (wild oat, Avena fatua); assay: Test A1 preemergence, Oat, Wild
Procedure, shortened: as §1

[4] = tested on: Pigweed, Palmer (palmer amaranth, palmer pigweed, Amaranthus palmeri); assay: Test A1 preemergence, Pigweed, Palmer
Procedure, shortened: as §1

[5] = tested on: soybean (Glycine max); assay: Test A1 preemergence, soybean
Procedure, shortened: as §1

[6] = tested on: blackgrass (Alopecurus myosuroides); assay: Test A1 postemergence, blackgrass; conditions: 0 to 100 scale (0 no effect, 100 complete control); for Plant response rating, Blackgrass: Postemergence
Procedure, shortened: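 Herbicidal response was scored on plants treated either preemergence, by directed spray onto soil of a loam–sand blend after sowing, or postemergence on potted plants at the one- to two-leaf stage, 2–10 cm high. Test chemicals were carried in a non-phytotoxic solvent mix with surfactant.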

[7] = tested on: corn (Zea mays); assay: Test A1 postemergence, corn; conditions: for Plant response rating, Corn: Postemergence
Procedure, shortened: as §1

[8] = tested on: barnyardgrass (Echinochloa crus-galli); assay: Test B1 flooded paddy test, barnyardgrass; conditions: 250 g ai/ha, Flood, applied to paddy water, 2-leaf stage, visually evaluated after 10 to 14 days
Excerpt: (§2) A dash (-) response means no test result.

[9] = tested on: ducksalad (Heteranthera limosa); assay: Test B1 flooded paddy test, ducksalad; conditions: 250 g ai/ha, Flood, applied to paddy water, 2-leaf stage, visually evaluated after 10 to 14 days
Excerpt: as §2

[10] = 31 g ai/ha, 0 to 100 scale (0 no effect, 100 complete control)
[11] = 125 g ai/ha, 0 to 100 scale, 0 no effect, 100 complete control
[12] = 31 g ai/ha, 0 to 100 scale (0 no effect, 100 complete control), 10 days

| Compound | Plant response rating, Foxtail, Giant [1, 10] | Plant response rating, Foxtail, Giant [1, 11] | Plant response rating, Goosegrass [2, 10] | Plant response rating, Goosegrass [2, 11] | Plant response rating, Oat, Wild [3, 10] | Plant response rating, Oat, Wild [3, 11] | Plant response rating, Pigweed, Palmer [4, 10] | Plant response rating, Pigweed, Palmer [4, 11] | Plant response rating, Soybean [5, 10] | Plant response rating, Soybean [5, 11] | Plant response rating, Blackgrass ([6]; 31 g ai/ha, 10 days) | Plant response rating, Blackgrass ([6]; 125 g ai/ha) | Plant response rating, Corn [7, 12] | Plant response rating, Corn ([7]; 125 g ai/ha, 0 to 100 scale) | Plant response rating, Barnyardgrass (0 to 100 scale, 0 is no effect, 100 is complete control) [8] | Plant response rating, Ducksalad (0 to 100 scale, 0 is no effect, 100 is complete control) [9] | Blackgrass plant response rating ([6]; 31 g ai/ha, postemergence) | Plant response rating, Blackgrass ([6]; 125 g ai/ha, 10 days) | Corn plant response rating ([7]; 31 g ai/ha, postemergence, 0 to 100 scale (0 no effect, 100 complete control)) | Plant response rating, Corn ([7]; 125 g ai/ha, 0 to 100 scale (0 no effect, 100 complete control), 10 days) |
| --- | --- | --- | --- | --- | --- | --- | --- | --- | --- | --- | --- | --- | --- | --- | --- | --- | --- | --- | --- | --- |
| CCc1cc(C)c(C2=NOC3(CCCC3)C2)cc1NS(=O)(=O)C(F)(F)F [Compound 311] | 0 | 10 | 10 | 60 | 0 | 0 | 30 | 30 | 0 | 0 | 0 | 0 | 0 | 0 | 0 | 0 | – | – | – | – |
| Cc1cc(C)c(N2CCC3(CCC(C)CC3)C2=O)cc1NS(=O)(=O)C(F)(F)F (stereo not drawn) [Compound 402] | 90 | 100 | 90 | 100 | 50 | 70 | 60 | 80 | 10 | 80 | – | – | – | – | 0 | 45 | 0 | 0 | 0 | 0 |
| Cc1c(C(=O)N2CCCCC2)cc(NS(=O)(=O)C(F)(F)F)c(Cl)c1F [Compound 333] | 30 | 100 | 80 | 80 | 20 | 40 | 90 | 100 | 40 | 60 | 0 | 30 | 0 | 0 | 0 | 70 | – | – | – | – |
| Cc1cc(C2CC2)c(NS(=O)(=O)C(F)(F)F)cc1C1=NOC2(CCCC2)C1 [Compound 313] | 0 | 40 | 0 | 20 | 0 | 0 | 0 | 20 | 0 | 0 | 0 | 0 | 0 | 0 | 0 | 0 | – | – | – | – |
| Cc1c(C(=O)N2CCC(F)CC2)cc(N(COC(=O)C(C)(C)C)S(=O)(=O)C(F)(F)F)c(C)c1C [Compound 361] | 0 | 90 | 10 | 100 | 0 | 0 | 0 | 20 | 0 | 20 | 0 | 0 | 0 | 40 | 95 | 65 | – | – | – | – |
| Cc1c(C(=O)N(C)C)cc(NS(=O)(=O)C(F)(F)F)c(Cl)c1F [Compound 320] | 10 | 100 | 80 | 100 | 0 | 0 | 50 | 100 | 20 | 40 | 40 | 0 | 0 | 0 | 0 | 60 | – | – | – | – |
